# Like-named read-outs stand apart in the source and are kept apart here. No end group written: not given here.
# Assays:
# nLuc-GLP-2R [1] = target: nLuc-GLP-2R (UniProt O95838)
# nLuc-GLP-2R [2] = target: nLuc-GLP-2R (UniProt O95838); experiment: FRET or BRET
# GLP-2R = target: T1, GLP-2R (Homo sapiens, UniProt O95838); experiment: GLP-2R activation: cAMP production, GloSensor HEK293 cells
# T1 sequence (O95838 1-553): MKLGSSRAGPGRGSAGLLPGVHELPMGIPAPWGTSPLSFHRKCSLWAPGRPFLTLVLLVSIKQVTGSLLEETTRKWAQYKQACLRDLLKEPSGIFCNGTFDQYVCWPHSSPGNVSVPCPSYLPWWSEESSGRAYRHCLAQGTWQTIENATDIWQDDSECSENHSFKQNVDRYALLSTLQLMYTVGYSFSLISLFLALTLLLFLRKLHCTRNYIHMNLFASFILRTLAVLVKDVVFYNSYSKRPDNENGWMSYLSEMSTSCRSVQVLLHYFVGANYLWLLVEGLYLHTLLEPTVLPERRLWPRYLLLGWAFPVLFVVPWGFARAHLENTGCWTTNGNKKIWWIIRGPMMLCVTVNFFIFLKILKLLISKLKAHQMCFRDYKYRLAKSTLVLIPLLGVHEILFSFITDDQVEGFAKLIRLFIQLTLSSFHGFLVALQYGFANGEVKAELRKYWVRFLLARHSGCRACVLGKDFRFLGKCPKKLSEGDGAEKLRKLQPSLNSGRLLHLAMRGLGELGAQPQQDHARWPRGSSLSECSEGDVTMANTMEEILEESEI
# GLP-1R = GLP-1R (Homo sapiens, UniProt P43220); experiment: GLP-1R activation: cAMP production, GloSensor HEK293 cells; format: cell-based
# Sequence of GLP-1R (P43220 24-463): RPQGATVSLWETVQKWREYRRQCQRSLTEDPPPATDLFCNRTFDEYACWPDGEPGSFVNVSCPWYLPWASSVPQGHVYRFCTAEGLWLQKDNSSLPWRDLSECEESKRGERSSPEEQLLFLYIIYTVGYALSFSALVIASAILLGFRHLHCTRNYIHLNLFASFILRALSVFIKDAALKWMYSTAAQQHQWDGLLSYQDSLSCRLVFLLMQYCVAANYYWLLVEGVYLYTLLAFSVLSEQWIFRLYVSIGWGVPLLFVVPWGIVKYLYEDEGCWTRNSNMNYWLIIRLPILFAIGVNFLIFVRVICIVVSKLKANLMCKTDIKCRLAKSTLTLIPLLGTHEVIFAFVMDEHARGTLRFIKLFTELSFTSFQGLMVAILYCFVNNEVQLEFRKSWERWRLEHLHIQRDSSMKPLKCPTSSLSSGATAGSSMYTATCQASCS
# nLuc-GLP-2R [3] = target: T2, nLuc-GLP-2R (Homo sapiens, UniProt O95838); experiment: nLuc-GLP-2R competition binding
# T2 sequence (O95838 1-553): T1 sequence (O95838 1-553)
# nLuc-GLP-1R = nLuc-GLP-1R (Homo sapiens, UniProt P43220); experiment: nLuc-GLP-1R competition binding
# Sequence of nLuc-GLP-1R (P43220 24-463): as above
# nLuc-GLP-2R [4] = target: nLuc-GLP-2R (UniProt O95838); remark: listed apart in the source
substance,measurement,setting,value
GLP-2 (peptide),"GLP-2R cAMP Production, % Max (normalized to GLP-2)",nLuc-GLP-2R [1],99%
same,"GLP-2R cAMP Production, EC50 (native GLP-2R)",nLuc-GLP-2R [1],0.086 nM
same,IC50,nLuc-GLP-2R [2],25 nM
GLP-2-NH2: C-terminal amide analogue of the hormone GLP-2,effect of altering the C-terminus to a primary amide on GLP-2R activation,"GLP-2R; natural sequence, compared with GLP-2, Figure S1",no effect on GLP-2R activation
"HGEGTFSSELATILDALAARDFIAWLIATKITDKKKKKK-NH2 (C-terminus assumed) [GLE, glepaglutide]",GLP-1R cAMP Production % Max,"GLP-1R; maximal response normalized relative to GLE, ≥4 independent experiments, ± S.E.M., NR = No Response",95 ± 2%
same,Emax,"GLP-2R; HEK293, read-out: GLP-2R cAMP Production % Max",98 ± 1%
same,lower affinity for nLuc-GLP-2R relative to GLP-2,"nLuc-GLP-2R [3]; competition BRET, Figure S2",~ 10 fold
"HGEGTFSSELATILDALAARDFIAWLIATKITDKKKKKK-NH2 [GLE, glepaglutide]",EC50,GLP-1R,5.1 nM
same,IC50,nLuc-GLP-1R,290 nM
same,EC50,GLP-2R,0.44 nM
same,IC50,nLuc-GLP-2R [3],170 nM
glepaglutide (GLE) (peptide),"GLP-2R cAMP Production, EC50 (native GLP-2R)",nLuc-GLP-2R [4],0.44 nM

# Source: PMC10335629 (Journal of the American Chemical Society, 2023)
